molecular target: T1, human mGlu2 receptor (Homo sapiens, UniProt Q14416); assay: [35S]GTPγS binding assay, mGluR2 PAM; type: biochemical; conditions: GTPγS - hmGluR2 PAM pEC50, in presence of glutamate at EC20; EC50 expressed in M
T1 construct: expressed in transfected cells; host or cells: CHO cells
Method: [^35S]GTPγS Binding Assay
The [^35S]GTPγS binding assay is a functional membrane-based assay used to study G-protein coupled receptor (GPCR) function whereby incorporation of a non-hydrolysable form of GTP, [^35S]GTPγS (guanosine 5′-triphosphate, labelled with […] ^35S), is measured.
Cells were then collected by scraping in PBS and cell suspension was centrifuged (10 min at 4000 RPM in benchtop centrifuge). Supernatant was discarded and pellet gently resuspended in 50 mM Tris-HCl, pH 7.4 by mixing with a vortex and pipetting up and down. The suspension was centrifuged at 16,000 RPM (Sorvall RC-5C plus rotor SS-34) for 10 minutes and the supernatant discarded. The pellet was homogenized in 5 mM Tris-HCl, pH 7.4 using an ultra-turrax homogenizer and centrifuged again (18,000 RPM, 20 min, 4° C.). The final pellet was resuspended in 50 mM Tris-HCl, pH 7.4 and stored at −80° C. in appropriate aliquots before use. Protein concentration was determined by the Bradford method (Bio-Rad, USA) with bovine serum albumin as standard.
Measurement of mGluR2 positive allosteric modulatory activity of test compounds was performed as follows. Test compounds and glutamate were diluted in assay buffer containing 10 mM HEPES acid, 10 mM HEPES salt, pH 7.4, 100 mM NaCl, 3 mM MgCl2 and 10 μM GDP. Human mGlu2 receptor-containing membranes were thawed on ice and diluted in assay buffer supplemented with 14 μg/ml saponin. Membranes were pre-incubated with compound alone or together with a predefined (˜EC20) concentration of glutamate (PAM assay) for 30 min at 30° C. After addition of [^35S]GTPγS (f c. 0.1 nM), assay mixtures were shaken briefly and further incubated to allow [^35S]GTPγS incorporation on activation (30 minutes, 30° C.). Final assay mixtures contained 7 μg of membrane protein in 10 mM HEPES acid, 10 mM HEPES salt, pH 7.4, 100 mM NaCl, 3 mM MgCl2, 10 μM GDP and 2 μg/ml saponin. […] Filters were washed 6 times with ice-cold 10 mM NaH2PO4/10 mM Na2HPO4, pH 7.4. Filters were then air-dried, and 40 μl of liquid scintillation cocktail (Microscint-O) was added to each well. Membrane-bound radioactivity was counted in a Microplate Scintillation and Luminescence Counter from Perkin Elmer.
The concentration-response curves of representative compounds of the present invention—obtained in the presence of EC20 of mGluR2 agonist glutamate to determine positive allosteric modulation (PAM)—were generated using the Lexis software interface (developed at J&J). Data were calculated as % of the control glutamate response, defined as the maximal response that is generated upon addition of glutamate alone. Sigmoid concentration-response curves plotting these percentages versus the log concentration of the test compound were analyzed using non-linear regression analysis. The concentration producing half-maximal effect is then calculated as EC50.
The pEC50 values below were calculated as the −log EC50, when the EC50 is expressed in M. Emax is defined as relative maximal effect (i.e. maximal % effect relative to the control glutamate response).
All compounds were tested in presence of mGluR2 agonist glutamate at a predetermined EC20 concentration, to determine positive allosteric modulation. pEC50 values were calculated from a concentration-response experiment of at least 8 concentrations.

T1 sequence (Q14416 19-872): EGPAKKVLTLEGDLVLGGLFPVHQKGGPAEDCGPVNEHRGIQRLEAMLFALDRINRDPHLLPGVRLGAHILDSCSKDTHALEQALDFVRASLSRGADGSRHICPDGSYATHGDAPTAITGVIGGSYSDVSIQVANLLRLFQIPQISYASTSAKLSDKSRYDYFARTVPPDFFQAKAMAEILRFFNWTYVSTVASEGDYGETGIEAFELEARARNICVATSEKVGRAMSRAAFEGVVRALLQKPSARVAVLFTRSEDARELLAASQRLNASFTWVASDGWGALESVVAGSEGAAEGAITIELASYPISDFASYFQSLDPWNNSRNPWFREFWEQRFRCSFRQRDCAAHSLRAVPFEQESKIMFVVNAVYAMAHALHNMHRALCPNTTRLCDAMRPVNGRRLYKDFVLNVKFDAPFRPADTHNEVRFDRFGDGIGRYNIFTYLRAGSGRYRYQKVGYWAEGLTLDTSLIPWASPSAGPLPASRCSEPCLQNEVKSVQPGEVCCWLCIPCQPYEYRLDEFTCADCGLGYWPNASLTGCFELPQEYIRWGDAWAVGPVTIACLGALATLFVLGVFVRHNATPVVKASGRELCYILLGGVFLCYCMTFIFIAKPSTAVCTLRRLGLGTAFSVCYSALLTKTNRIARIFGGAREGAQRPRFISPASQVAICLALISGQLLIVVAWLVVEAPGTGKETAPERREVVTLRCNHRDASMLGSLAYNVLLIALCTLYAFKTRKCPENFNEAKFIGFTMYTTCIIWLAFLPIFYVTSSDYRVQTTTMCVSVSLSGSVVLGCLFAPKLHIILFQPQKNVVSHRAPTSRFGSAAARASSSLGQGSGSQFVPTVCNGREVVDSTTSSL

Question: CC(Oc1ccc(F)cc1F)c1ccn2c(CC3CCC3)nnc2c1C(F)(F)F (single isomer, unassigned) [Compound 17, 3-(Cyclobutylmethyl)-7-[(1*R)-1-(2,4-difluorophenoxy)ethyl]-8-(trifluoromethyl)[1,2,4]triazolo[4,3-a]pyridine] was tested. Which EC50 did it give?
Answer: The EC50 was 18.6 nM.

Question: How did the EC50 turn out when CC(Oc1ccc(F)cc1F)c1ccn2c(CC3CCC3)nnc2c1C(F)(F)F (single isomer, unassigned) [Compound 18, 3-(Cyclobutylmethyl)-7-[(1*S)-1-(2,4-difluorophenoxy)ethyl]-8-(trifluoromethyl)[1,2,4]triazolo[4,3-a]pyridine] was run?
Answer: Its EC50 is 575 nM.

Question: For CCOCc1nnc2c(C(F)(F)F)c(C(C)Oc3c(F)cc(F)cc3F)ccn12 (single isomer, unassigned) [Compound 22, 3-(Ethoxymethyl)-8-(trifluoromethyl)-7-[(1*R)-1-(2,4,6-trifluorophenoxy)ethyl][1,2,4]triazolo[4,3-a]pyridine], which EC50 is on record?
Answer: Its EC50 is 24.5 nM.

Question: Which EC50 does the source give for CCOCc1nnc2c(C(F)(F)F)c(C(C)Oc3c(F)cc(F)cc3F)ccn12 (single isomer, unassigned) [Compound 23, 3-(Ethoxymethyl)-8-(trifluoromethyl)-7-[(1*S)-1-(2,4,6-trifluorophenoxy)ethyl][1,2,4]triazolo[4,3-a]pyridine] here?
Answer: The EC50 was 1150 nM.

Question: With CC(Oc1ccc(F)cc1F)c1ccn2c(CC3CCC3)nnc2c1C(F)(F)F (centres unmarked) [Compound 16, 3-(Cyclobutylmethyl)-7-[1-(2,4-difluorophenoxy)ethyl]-8-(trifluoromethyl)[1,2,4]triazolo[4,3-a]pyridine] as the compound, how does the EC50 read?
Answer: Its EC50 is 28.8 nM.

same assay, conditions: in presence of glutamate at EC20; EC50 expressed in M; read-out: GTPγS - hmGluR2 PAM pEC50 (converted)

Question: With CC(Oc1ccc(F)cc1)c1ccn2c(CC3CC3)nnc2c1C(F)(F)F (single isomer, unassigned) [Compound 2, 3-(Cyclopropylmethyl)-7-[(1*R)-1-(4-fluorophenoxy)ethyl]-8-(trifluoromethyl)[1,2,4]triazolo[4,3-a]pyridine] as the compound, how does the EC50 read?
Answer: The EC50 was 145 nM.

Question: CC(Oc1ccc(F)cc1)c1ccn2c(CC3CC3)nnc2c1C(F)(F)F (single isomer, unassigned) [Compound 3, 3-(Cyclopropylmethyl)-7-[(1*S)-1-(4-fluorophenoxy)ethyl]-8-(trifluoromethyl)[1,2,4]triazolo[4,3-a]pyridine] was tested. Which EC50 did it give?
Answer: The EC50 was 1620 nM.

Question: CCOCc1nnc2c(C(F)(F)F)c(C(C)Oc3ccc(F)cc3F)ccn12 (single isomer, unassigned) [Compound 20, 7-[(1*R)-1-(2,4-Difluorophenoxy)ethyl]-3-(ethoxymethyl)-8-(trifluoromethyl)[1,2,4]triazolo[4,3-a]pyridine] was tested. Which EC50 did it give?
Answer: The EC50 was 85.1 nM.

Question: CCOCc1nnc2c(C(F)(F)F)c(C(C)Oc3ccc(F)cc3F)ccn12 (single isomer, unassigned) [Compound 21, 7-[(1*S)-1-(2,4-Difluorophenoxy)ethyl]-3-(ethoxymethyl)-8-(trifluoromethyl)[1,2,4]triazolo[4,3-a]pyridine] was tested. Which EC50 did it give?
Answer: Its EC50 is 479 nM.

Question: For CCCc1nnc2c(C(F)(F)F)c(C(C)Oc3ccc(F)cc3F)ccn12 (single isomer, unassigned) [Compound 31], which EC50 is on record?
Answer: Its EC50 is 89.1 nM.

Question: With CCCc1nnc2c(C(F)(F)F)c(C(C)Oc3ccc(F)cc3F)ccn12 (single isomer, unassigned) [Compound 32] as the compound, how does the EC50 read?
Answer: Its EC50 is 1950 nM.

Question: With CC(Oc1ccc(F)cc1)c1ccn2c(CC3CC3)nnc2c1C(F)(F)F (centres unmarked) [Compound 1, 3-(Cyclopropylmethyl)-7-[1-(4-fluorophenoxy)ethyl]-8-(trifluoromethyl)[1,2,4]triazolo[4,3-a]pyridine] as the compound, how does the EC50 read?
Answer: The EC50 was 257 nM.

Question: How did the EC50 turn out when CC(Oc1ccc(F)cc1F)c1ccn2c(CC3CC3)nnc2c1C(F)(F)F (centres unmarked) [Compound 4, 3-(Cyclopropylmethyl)-7-[1-(2,4-difluorophenoxy)ethyl]-8-(trifluoromethyl)[1,2,4]triazolo[4,3-a]pyridine] was run?
Answer: Its EC50 is 91.2 nM.

Question: For C[C@@H](Oc1ccc(F)cc1F)c1ccn2c(CC3CC3)nnc2c1C(F)(F)F [Compound 5, 3-(Cyclopropylmethyl)-7-[(1R)-1-(2,4-difluorophenoxy)ethyl]-8-(trifluoromethyl)[1,2,4]triazolo[4,3-a]pyridine], which EC50 is on record?
Answer: The EC50 was 871 nM.

Question: For C[C@H](Oc1cc(F)cc(F)c1)c1ccn2c(CC3CC3)nnc2c1C(F)(F)F [Compound 7, 3-(Cyclopropylmethyl)-7-[(1S)-1-(3,5-difluorophenoxy)ethyl]-8-(trifluoromethyl)[1,2,4]triazolo[4,3-a]pyridine], which EC50 is on record?
Answer: Its EC50 is 49 nM.

Question: C[C@H](Oc1ccc(F)c(F)c1)c1ccn2c(CC3CC3)nnc2c1C(F)(F)F [Compound 8, 3-(Cyclopropylmethyl)-7-[(1S)-1-(3,4-difluorophenoxy)ethyl]-8-(trifluoromethyl)[1,2,4]triazolo[4,3-a]pyridine] was tested. Which EC50 did it give?
Answer: The EC50 was 91.2 nM.

Question: With C[C@H](Oc1cccc(F)c1F)c1ccn2c(CC3CC3)nnc2c1C(F)(F)F [Compound 9, 3-(Cyclopropylmethyl)-7-[(1S)-1-(2,3-difluorophenoxy)ethyl]-8-(trifluoromethyl)[1,2,4]triazolo[4,3-a]pyridine] as the compound, how does the EC50 read?
Answer: Its EC50 is 50.1 nM.

Question: Which EC50 does the source give for C[C@H](Oc1cc(F)ccc1F)c1ccn2c(CC3CC3)nnc2c1C(F)(F)F [Compound 10, 3-(Cyclopropylmethyl)-7-[(1S)-1-(2,5-difluorophenoxy)ethyl]-8-(trifluoromethyl)[1,2,4]triazolo[4,3-a]pyridine] here?
Answer: The EC50 was 33.9 nM.

Question: With C[C@H](Oc1c(F)cccc1F)c1ccn2c(CC3CC3)nnc2c1C(F)(F)F [Compound 11, 3-(Cyclopropylmethyl)-7-[(1S)-1-(2,6-difluorophenoxy)ethyl]-8-(trifluoromethyl)[1,2,4]triazolo[4,3-a]pyridine] as the compound, how does the EC50 read?
Answer: The EC50 was 5.62 nM.

Question: How did the EC50 turn out when COc1cc(F)ccc1O[C@@H](C)c1ccn2c(CC3CC3)nnc2c1C(F)(F)F [Compound 12, 3-(Cyclopropylmethyl)-7-[(1S)-1-(4-fluoro-2-methoxyphenoxy)ethyl]-8-(trifluoromethyl)[1,2,4]triazolo[4,3-a]pyridine] was run?
Answer: Its EC50 is 102 nM.

Question: How did the EC50 turn out when Cc1ccc(O[C@@H](C)c2ccn3c(CC4CC4)nnc3c2C(F)(F)F)c(Cl)c1 [Compound 13, 7-[(1S)-1-(2-Chloro-4-methylphenoxy)ethyl]-3-(cyclopropylmethyl)-8-(trifluoromethyl)[1,2,4]triazolo[4,3-a]pyridine] was run?
Answer: The EC50 was 17.8 nM.

Question: With Cc1cc(F)ccc1O[C@@H](C)c1ccn2c(CC3CC3)nnc2c1C(F)(F)F [Compound 14, 3-(Cyclopropylmethyl)-7-[(1 S)-1-(4-fluoro-2-methylphenoxy)ethyl]-8-(trifluoromethyl)[1,2,4]triazolo[4,3-a]pyridine] as the compound, how does the EC50 read?
Answer: Its EC50 is 29.5 nM.

Question: Which EC50 does the source give for C[C@H](Oc1c(F)cc(F)cc1F)c1ccn2c(CC3CC3)nnc2c1C(F)(F)F [Compound 15, 3-(Cyclopropylmethyl)-8-(trifluoromethyl)-7-[(1S)-1-(2,4,6-trifluorophenoxy)ethyl][1,2,4]triazolo[4,3-a]pyridine] here?
Answer: Its EC50 is 6.92 nM.

Question: Which EC50 does the source give for CCOCc1nnc2c(C(F)(F)F)c(C(C)Oc3ccc(F)cc3F)ccn12 (centres unmarked) [Compound 19, 7-[1-(2,4-Difluorophenoxy)ethyl]-3-(ethoxymethyl)-8-(trifluoromethyl)[1,2,4]triazolo[4,3-a]pyridine] here?
Answer: Its EC50 is 195 nM.

Question: CCCc1nnc2c(C(F)(F)F)c(C(C)Oc3ccc(F)cc3F)ccn12 (centres unmarked) [Compound 30, 7-[1-(2,4-Difluorophenoxy)ethyl]-3-propyl-8-(trifluoromethyl)[1,2,4]triazolo[4,3-a]pyridine] was tested. Which EC50 did it give?
Answer: Its EC50 is 126 nM.

same assay, conditions: maximal % effect relative to the control glutamate response; glutamate at EC20

Question: CC(Oc1ccc(F)cc1F)c1ccn2c(CC3CCC3)nnc2c1C(F)(F)F (single isomer, unassigned) [Compound 18, 3-(Cyclobutylmethyl)-7-[(1*S)-1-(2,4-difluorophenoxy)ethyl]-8-(trifluoromethyl)[1,2,4]triazolo[4,3-a]pyridine] was tested. Which “GTPγS - hmGluR2 PAM Emax” value did it give?
Answer: Its value is 213%.

same assay, conditions: read-out: GTPγS - hmGluR2 PAM Emax, maximal % effect relative to the control glutamate response; glutamate at EC20

Question: Which Emax does the source give for CC(Oc1ccc(F)cc1F)c1ccn2c(CC3CCC3)nnc2c1C(F)(F)F (single isomer, unassigned) [Compound 17, 3-(Cyclobutylmethyl)-7-[(1*R)-1-(2,4-difluorophenoxy)ethyl]-8-(trifluoromethyl)[1,2,4]triazolo[4,3-a]pyridine] here?
Answer: The Emax was 317%.

Question: For CC(Oc1ccc(F)cc1F)c1ccn2c(CC3CCC3)nnc2c1C(F)(F)F (centres unmarked) [Compound 16, 3-(Cyclobutylmethyl)-7-[1-(2,4-difluorophenoxy)ethyl]-8-(trifluoromethyl)[1,2,4]triazolo[4,3-a]pyridine], which Emax is on record?
Answer: The Emax was 284%.

Question: With CCOCc1nnc2c(C(F)(F)F)c(C(C)Oc3ccc(F)cc3F)ccn12 (centres unmarked) [Compound 19, 7-[1-(2,4-Difluorophenoxy)ethyl]-3-(ethoxymethyl)-8-(trifluoromethyl)[1,2,4]triazolo[4,3-a]pyridine] as the compound, how does the Emax read?
Answer: The Emax was 297%.

Reference: patent US9708315B2, “1,2,4-triazolo[4,3-a]pyridine compounds and their use as positive allosteric modulators of MGLUR2 receptors” (Janssen Pharmaceutica NV, priority 2013, dated 2017)
